The target of assay [1] is T1, BACE1 (Homo sapiens (Human), UniProt P56817). Briefly: In vitro enzymatic BACE1 FRET assay. Type of assay: biochemical. The settings on record: pH 4.5, read-out: BACE1 Enzyme IC50.
Target sequence in this assay (P56817 46-501): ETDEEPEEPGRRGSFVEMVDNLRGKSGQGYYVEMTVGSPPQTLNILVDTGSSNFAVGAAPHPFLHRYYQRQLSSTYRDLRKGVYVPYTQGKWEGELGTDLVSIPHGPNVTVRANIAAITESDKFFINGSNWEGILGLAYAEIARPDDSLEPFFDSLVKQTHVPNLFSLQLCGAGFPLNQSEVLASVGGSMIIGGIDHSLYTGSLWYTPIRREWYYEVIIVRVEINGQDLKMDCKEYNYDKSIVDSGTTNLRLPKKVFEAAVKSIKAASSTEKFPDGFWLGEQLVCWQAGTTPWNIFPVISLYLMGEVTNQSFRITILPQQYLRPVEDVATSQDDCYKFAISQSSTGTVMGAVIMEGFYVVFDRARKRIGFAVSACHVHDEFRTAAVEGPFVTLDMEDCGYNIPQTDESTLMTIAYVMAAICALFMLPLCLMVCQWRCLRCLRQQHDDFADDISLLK
The target of the next assay is human recombinant BACE2 (Homo sapiens (Human), UniProt Q9Y5Z0). Description: In vitro enzymatic BACE2 FRET assay. Type of assay: biochemical. The settings on record: pH 4.5, read-out: BACE2 Enzyme IC50.
Assay [2] deals with T1, BACE1. Briefly: In vitro BACE1 cell-based assay (Aβ40 in conditioned medium of cells stably expressing APP, HTRF). As for the experimental part:
In Vitro BACE1 Cell-Based Assay
The cell-based assay measures inhibition or reduction of Aβ40 in conditioned medium of test compound treated cells expressing amyloid precursor protein. Cells stably expressing Amyloid Precursor Protein (APP) were plated at a density of 45K cells/well in 384 well plates (Corning/BioCoat 354663). The test compounds were then added to cells in 22-point dose response concentrations with the starting concentration being 62.5 μM. The compounds were diluted from stock solutions in DMSO and the final DMSO concentration of the test compounds on cells was 0.625%. The cells were cultivated overnight at 37° C. and 5% CO2 in DMEM supplemented with 10% FBS. After 24 h of incubation with the test compounds, the conditioned media was collected and the Aβ40 levels were determined using HTRF (Homogeneous Time Resolved Fluorescence). The IC50 of the compound was calculated from the percent of control or percent inhibition of Aβ40 as a function of the concentration of the test compound.
The HTRF to detect Aβ40 was performed in 384 well plates (Costar 3658). The antibody pair that were used to detect Aβ40 from cell supernatants were ConfAb40 antibody (Amgen in-house) and biotinylated 6E10 (BIOLEGEND). As an alternative to ConfAb40, a commercially available antibody, Anti-beta Amyloid 1-40 antibody [BDI350] from Abcam, Cambridge, Mass. 02139-1517 (Product code: ab20068), may be used in this assay. The concentrations were 0.35 μg/mL of ConfAb40 antibody and 1.33 μg/mL of 6E10-biotinylated antibody, as well as 4.5 μg/mL of Streptavidin Allophycocyanin Conjugate (ThermoFisher Scientific) in HTRF Buffer ([…], 1% BSA, 0.5% Tween 20).
The conditioned media was incubated with above antibodies and Streptavidin Allophycocyanin Conjugate for 30-60 minutes at 23° C. The final readout was performed on Envision from PerkinElmer.
Target sequence in this assay (P56817 46-501, species assumed): as the sequence (P56817 46-501) above
In general terms: In TR-FRET formats the signal depends on donor and acceptor labels being close together.

A further assay addresses Recombinant CatD (Homo sapiens (Human), UniProt P07339). Description: In vitro enzymatic Cathepsin D (CatD) FRET assay. Type of assay: biochemical. To be noted: pH 3.5, read-out: Cat D Enzyme IC50.
Setting [3] is: Aβ40, 24 h incubation, read-out: BACE1 Cell IC50.

One may read the IC50 as the point on the concentration scale where inhibition reaches its midpoint.

human recombinant BACE2, sequence (Q9Y5Z0 63-518): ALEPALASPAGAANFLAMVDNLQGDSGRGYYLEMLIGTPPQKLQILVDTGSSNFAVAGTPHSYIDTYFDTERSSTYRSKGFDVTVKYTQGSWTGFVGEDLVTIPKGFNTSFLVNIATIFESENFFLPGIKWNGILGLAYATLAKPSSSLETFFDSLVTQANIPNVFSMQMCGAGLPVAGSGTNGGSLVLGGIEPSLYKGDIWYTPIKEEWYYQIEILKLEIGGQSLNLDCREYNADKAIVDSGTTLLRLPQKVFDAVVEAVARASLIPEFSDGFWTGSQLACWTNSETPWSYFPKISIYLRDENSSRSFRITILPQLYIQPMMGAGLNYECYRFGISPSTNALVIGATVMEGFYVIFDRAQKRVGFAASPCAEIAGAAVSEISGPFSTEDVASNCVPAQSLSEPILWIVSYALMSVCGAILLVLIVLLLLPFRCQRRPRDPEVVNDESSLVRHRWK
Recombinant CatD, sequence (P07339 65-412): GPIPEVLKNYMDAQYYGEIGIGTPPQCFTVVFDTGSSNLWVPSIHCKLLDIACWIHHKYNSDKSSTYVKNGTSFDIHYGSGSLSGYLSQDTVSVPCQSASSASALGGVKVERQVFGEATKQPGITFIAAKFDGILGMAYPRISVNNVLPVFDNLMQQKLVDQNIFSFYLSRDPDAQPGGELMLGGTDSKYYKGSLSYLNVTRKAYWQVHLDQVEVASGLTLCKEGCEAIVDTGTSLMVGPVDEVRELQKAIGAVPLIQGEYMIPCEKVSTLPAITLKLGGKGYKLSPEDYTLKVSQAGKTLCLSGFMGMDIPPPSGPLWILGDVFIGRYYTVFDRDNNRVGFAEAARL

Regarding `Cc1cc(C#N)cnc1C#Cc1ccc(F)c([C@@]2(CF)N=C(N)S[C@@]3(/C=C/C(=O)N4CCOCC4)C[C@H]32)c1` [Example 116, 6-((3-((1R,5S,6S)-3-amino-5-(fluoromethyl)-1-((E)-3-morpholino-3-oxoprop-1-en-1-yl)-2-thia-4-azabicyclo[4.1.0]hept-3-en-5-yl)-4-fluorophenyl)ethynyl)-5-methylnicotinonitrile], the IC50 on BACE1 [1] is 0.005 µM; on human recombinant BACE2, 0.166 µM; on BACE1 [2] (setting [3]), 0.018 µM; on Recombinant CatD, 172 µM.
For the compound `NC1=N[C@](CF)(c2cc(C#Cc3ncc(Cl)cn3)ccc2F)[C@@H]2C[C@]2(/C=C/C(=O)N2CCOCC2)S1` [Example 117, (E)-3-((1R,5S,6S)-3-amino-5-(5-((5-chloropyrimidin-2-yl)ethynyl)-2-fluorophenyl)-5-(fluoromethyl)-2-thia-4-azabicyclo[4.1.0]hept-3-en-1-yl)-1-morpholinoprop-2-en-1-one], the IC50 at BACE1 [1] turned out to be 0.021 µM; at human recombinant BACE2 it was 0.012 µM; on BACE1 [2] (setting [3]), 0.029 µM; on Recombinant CatD, 169 µM.
For `Cc1cc(C#Cc2ccc(F)c([C@@]3(CF)N=C(N)S[C@@]4(/C=C/C(=O)N5CCOCC5)C[C@H]43)c2)sn1` [Example 118, (E)-3-((1R,5S,6S)-3-amino-5-(2-fluoro-5-((3-methylisothiazol-5-yl)ethynyl)phenyl)-5-(fluoromethyl)-2-thia-4-azabicyclo[4.1.0]hept-3-en-1-yl)-1-morpholinoprop-2-en-1-one] the same measures were 0.006 µM, 0.017 µM, 0.023 µM and 26.2 µM.
Regarding `N#Cc1ccc(C#Cc2ccc(F)c([C@@]3(CF)N=C(N)S[C@@]4(CCC(=O)N5CCOCC5)C[C@H]43)c2)nc1` [Example 119, 6-((3-((1S,5S,6S)-3-amino-5-(fluoromethyl)-1-(3-morpholino-3-oxopropyl)-2-thia-4-azabicyclo[4.1.0]hept-3-en-5-yl)-4-fluorophenyl)ethynyl)nicotinonitrile], the IC50 is 0.049 µM at BACE1 [1], 0.126 µM on human recombinant BACE2, 0.06 µM on BACE1 [2] (setting [3]) and 188 µM on Recombinant CatD.
For `Cc1cc(C#N)cnc1C#Cc1ccc(F)c([C@@]2(CF)N=C(N)S[C@@]3(CCC(=O)N4CCOCC4)C[C@H]32)c1` [Example 120, 6-((3-((1S,5S,6S)-3-amino-5-(fluoromethyl)-1-(3-morpholino-3-oxopropyl)-2-thia-4-azabicyclo[4.1.0]hept-3-en-5-yl)-4-fluorophenyl)ethynyl)-5-methylnicotinonitrile], the IC50 at BACE1 [1] is 0.011 µM; on human recombinant BACE2, 0.179 µM; at BACE1 [2] (setting [3]), 0.052 µM; at Recombinant CatD it was 190 µM.
For `N#Cc1cnc(C#Cc2ccc(F)c([C@@]3(CF)N=C(N)S[C@@]4(/C=C/C(=O)N5CCOCC5)C[C@H]43)c2)nc1` [Example 121, 2-((3-((1R,5S,6S)-3-amino-5-(fluoromethyl)-1-((E)-3-morpholino-3-oxoprop-1-en-1-yl)-2-thia-4-azabicyclo[4.1.0]hept-3-en-5-yl)-4-fluorophenyl)ethynyl)pyrimidine-5-carbonitrile] the same measures were 0.009 µM, 0.047 µM, 1.9 µM and 143 µM.
As to `N#Cc1ccc(C#Cc2ccc(F)c([C@@]3(CF)N=C(N)S[C@@]4(/C=C/C(=O)N5CCOCC5)C[C@H]43)c2)cc1` [Example 122, 4-((3-((1R,5S,6S)-3-amino-5-(fluoromethyl)-1-((E)-3-morpholino-3-oxoprop-1-en-1-yl)-2-thia-4-azabicyclo[4.1.0]hept-3-en-5-yl)-4-fluorophenyl)ethynyl)benzonitrile], the IC50 worked out at 0.01 µM on BACE1 [1], 0.281 µM on human recombinant BACE2, 0.049 µM at BACE1 [2] (setting [3]) and 84.3 µM at Recombinant CatD.
For the compound `Cc1cc(C#N)cnc1C#Cc1ccc(F)c([C@@]2(C)N=C(N)S[C@@]3(C(=O)N(C)C)C[C@H]32)c1` [Example 123, (1S,5S,6S)-3-amino-5-(5-((5-cyano-3-methyl-2-pyridinyl)ethynyl)-2-fluorophenyl)-N,N,5-trimethyl-2-thia-4-azabicyclo[4.1.0]hept-3-ene-1-carboxamide], the IC50 at BACE1 [1] turned out to be 0.003 µM; at human recombinant BACE2 it was 0.099 µM; at BACE1 [2] (setting [3]), 0.003 µM; on Recombinant CatD it was 236 µM.
Consider `C#Cc1ccc(F)c([C@@]2(C)N=C(N)S[C@@]3(C(=O)N(C)C)C[C@H]32)c1` [Example 123d, (1S,5S,6S)-3-amino-5-(5-ethynyl-2-fluorophenyl)-N,N,5-trimethyl-2-thia-4-azabicyclo[4.1.0]hept-3-ene-1-carboxamide], for which the IC50 on BACE1 [1] was determined as 0.378 µM; on human recombinant BACE2, 0.142 µM; on BACE1 [2] (setting [3]), 0.328 µM; at Recombinant CatD, 50.5 µM.
For `N#Cc1cnc(C#Cc2ccc(F)c([C@@]3(CF)N=C(N)S[C@@]4(/C=C/C(=O)N5CCOCC5)C[C@H]43)c2)c(F)c1` [Example 124, 6-((3-((1R,5S,6S)-3-amino-5-(fluoromethyl)-1-((E)-3-morpholino-3-oxoprop-1-en-1-yl)-2-thia-4-azabicyclo[4.1.0]hept-3-en-5-yl)-4-fluorophenyl)ethynyl)-5-fluoronicotinonitrile], in that order: 0.049 µM, 0.037 µM, 0.153 µM and 335 µM.
As for `N#Cc1ccc(C#Cc2ccc(F)c([C@@]3(CF)N=C(N)S[C@@]4(Cn5ccnc5)C[C@H]43)c2)nc1` [Example 125, 6-((3-((1S,5S,6S)-1-((1H-imidazol-1-yl)methyl)-3-amino-5-(fluoromethyl)-2-thia-4-azabicyclo[4.1.0]hept-3-en-5-yl)-4-fluorophenyl)ethynyl)nicotinonitrile], the IC50 was determined as 0.583 µM on BACE1 [1], 8.08 µM at human recombinant BACE2, 0.118 µM at BACE1 [2] (setting [3]) and 248 µM at Recombinant CatD.
On to `Cc1cc(C#N)cnc1C#Cc1ccc(F)c([C@@]2(C)N=C(N)S[C@@]3(C#N)C[C@H]32)c1` [Example 126, (1S,5S,6S)-3-amino-5-(5-((5-cyano-3-methylpyridin-2-yl)ethynyl)-2-fluorophenyl)-5-methyl-2-thia-4-azabicyclo[4.1.0]hept-3-ene-1-carbonitrile], for which the IC50 at BACE1 [1] amounted to 0.021 µM; at human recombinant BACE2 it was 0.617 µM; on BACE1 [2] (setting [3]), 0.075 µM; on Recombinant CatD, 268 µM.
Take `Cc1cc(C#N)cnc1C#Cc1ccc(F)c([C@@]2(CF)N=C(N)S[C@@]3(C(=O)N(C)C)C[C@H]32)c1` [Example 127, (1S,5S,6S)-3-amino-5-(5-((5-cyano-3-methylpyridin-2-yl)ethynyl)-2-fluorophenyl)-5-(fluoromethyl)-N,N-dimethyl-2-thia-4-azabicyclo[4.1.0]hept-3-ene-1-carboxamide]: the IC50 on BACE1 [1] was 0.002 µM; at human recombinant BACE2 it was 0.077 µM; against BACE1 [2], 0.022 µM; on Recombinant CatD it was 969 µM.
For the compound `Cc1cc(C#N)cnc1C#Cc1ccc(F)c([C@@]2(C)N=C(N)S[C@@]3(C(=O)N4CCCC4)C[C@H]32)c1` [Example 128, 6-((3-((1S,5S,6S)-3-amino-5-methyl-1-(pyrrolidine-1-carbonyl)-2-thia-4-azabicyclo[4.1.0]hept-3-en-5-yl)-4-fluorophenyl)ethynyl)-5-methylnicotinonitrile], the IC50 turned out to be 0.002 µM at BACE1 [1], 0.423 µM at human recombinant BACE2, 0.002 µM on BACE1 [2] and 508 µM at Recombinant CatD.
`CN(C)C(=O)[C@]12C[C@H]1[C@@](C)(c1cc(C#Cc3ccc(C#N)cc3)ccc1F)N=C(N)S2` [Example 129, (1S,5S,6S)-3-amino-5-(5-((4-cyanophenyl)ethynyl)-2-fluorophenyl)-N,N,5-trimethyl-2-thia-4-azabicyclo[4.1.0]hept-3-ene-1-carboxamide]: the IC50 was 0.007 µM on BACE1 [1], 0.251 µM on human recombinant BACE2, 0.058 µM against BACE1 [2] and 289 µM on Recombinant CatD.
As to `C#CCOc1ccc(C#Cc2ccc(F)c([C@@]3(C)N=C(N)S[C@@]4(C(=O)N(C)C)C[C@H]43)c2)nc1` [Example 130, (1S,5S,6S)-3-amino-5-(2-fluoro-5-((5-(2-propyn-1-yloxy)-2-pyridinyl)ethynyl)phenyl)-N,N,5-trimethyl-2-thia-4-azabicyclo[4.1.0]hept-3-ene-1-carboxamide], the IC50 on BACE1 [1] turned out to be 0.161 µM; on human recombinant BACE2, 0.432 µM; at BACE1 [2] (setting [3]) it was 0.152 µM; on Recombinant CatD, 926 µM.

(Values after US10889581B2, “Cyclopropyl fused thiazine derivatives as beta-secretase inhibitors and methods of use” (AMGEN INC., priority 2016, dated 2021).)
